In patent US7816096B2, “Assay solution compositions and methods for GPCR arrays” (priority 2003, dated 2010):

Experiments:
[1] = target: neurotensin receptor Subtype-1 (NTR1) (Homo sapiens, UniProt P30989); conditions: 100 mM NaCl present or absent; 2 nM Bodipy-TMR-neurotensin 2-13
Protocol: (§1) For the binding assays, each individual array was incubated with 10 μl of a solution containing labeled ligand(s) at a particular concentration in the absence and presence of varying amounts (0-1000 nM) of unlabeled compounds. The binding buffer used for all experiments was Tris-HCl (50 mM, pH 7.4) containing 10 mM MgCl2, 0.1% BSA and 1 mM EDTA.
(§2) After executing the binding assays, the microarrays are washed and dried, and then examined using Genepix scanner 4000 (Axon Instruments, Union City, Calif.). Using Genepix software, resulting data is analyzed. Each data point in the plots represents the average of at least three replicate micospots. Using non-linear regression analysis (Graphpad PRISM, Graphpad Software Inc., San Diego, Calif.), one can estimate Kd and IC50.

NTR1 = NTR1 (Rattus norvegicus, UniProt P20789); conditions: cited from earlier work
[2] = target: T1, muscarinic receptor subtype 1 (M1) (Homo sapiens, UniProt P11229); assay: multiplexed competitive binding assay on GPCR microarray; conditions: 1 uM unlabeled telenzepine; cocktail of labeled ligands incl. 2 nM Cy3B-telenezepine
T1 sequence (P11229 1-460): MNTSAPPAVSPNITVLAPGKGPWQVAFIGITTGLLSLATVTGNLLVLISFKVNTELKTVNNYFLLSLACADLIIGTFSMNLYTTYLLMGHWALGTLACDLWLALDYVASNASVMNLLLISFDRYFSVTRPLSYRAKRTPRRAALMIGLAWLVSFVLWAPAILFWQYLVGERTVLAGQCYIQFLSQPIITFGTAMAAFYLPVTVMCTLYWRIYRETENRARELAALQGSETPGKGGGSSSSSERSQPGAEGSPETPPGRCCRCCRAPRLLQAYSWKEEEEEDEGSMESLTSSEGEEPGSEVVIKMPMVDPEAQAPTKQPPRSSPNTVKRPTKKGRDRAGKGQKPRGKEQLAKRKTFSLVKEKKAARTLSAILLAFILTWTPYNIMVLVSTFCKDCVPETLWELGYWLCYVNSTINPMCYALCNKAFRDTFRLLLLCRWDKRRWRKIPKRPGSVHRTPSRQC
Protocol: FIGS. 2C & 2D, respectively, are graphs of the percent of total detected signal in the presence and absence of 1 μM telenzepine.
A single buffered binding solution composition, according to the invention—including for example, 50 mM Tris-HCl, pH 7.4, 10 mM MgCl2, 1 mM EDTA, 0.1 wt. % BSA—is used for multiplexed competitive binding assay. […] Telenzepine is an antagonist for M1 receptor alone.
as §1, §2

Sequence of NTR1 (P20789 whole entry): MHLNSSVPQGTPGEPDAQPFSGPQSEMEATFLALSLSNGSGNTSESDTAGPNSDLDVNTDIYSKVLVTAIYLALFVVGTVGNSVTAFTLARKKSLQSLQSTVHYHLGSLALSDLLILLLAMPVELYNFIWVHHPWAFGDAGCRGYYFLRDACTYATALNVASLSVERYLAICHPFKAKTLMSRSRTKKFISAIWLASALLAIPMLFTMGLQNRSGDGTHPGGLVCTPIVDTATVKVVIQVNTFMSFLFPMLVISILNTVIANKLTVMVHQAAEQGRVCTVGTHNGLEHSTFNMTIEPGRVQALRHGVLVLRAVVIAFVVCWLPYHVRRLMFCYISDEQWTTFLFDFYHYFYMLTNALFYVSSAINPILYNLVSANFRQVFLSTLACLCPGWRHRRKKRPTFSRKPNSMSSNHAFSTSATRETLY
Sequence of neurotensin receptor Subtype-1 (NTR1) (P30989 whole entry): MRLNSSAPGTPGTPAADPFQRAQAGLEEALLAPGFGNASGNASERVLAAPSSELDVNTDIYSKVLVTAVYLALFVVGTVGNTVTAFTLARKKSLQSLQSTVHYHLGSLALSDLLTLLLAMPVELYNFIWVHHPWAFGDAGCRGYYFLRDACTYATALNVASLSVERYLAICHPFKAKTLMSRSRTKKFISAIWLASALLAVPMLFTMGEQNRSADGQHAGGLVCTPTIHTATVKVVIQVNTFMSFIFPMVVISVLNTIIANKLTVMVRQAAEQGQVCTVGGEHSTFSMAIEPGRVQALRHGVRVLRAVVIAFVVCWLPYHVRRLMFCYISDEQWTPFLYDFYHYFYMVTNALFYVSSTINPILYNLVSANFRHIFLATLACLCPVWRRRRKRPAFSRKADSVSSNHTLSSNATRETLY

## [Cl-].[Na+] [NaCl]
[1]
  effect on binding of BT-NT to NTR1 (total binding signal): strongly influences

## [Na+] [sodium ions]
NTR1; read-out: IC50 for inhibition of binding of radio-labeled neurotensin to NTR1
  IC50: 18 mM
NTR1; sodium ions at a concentration as low as about 20 mM
  inhibition of binding of radio-labeled neurotensin to NTR1: at least 50%

## Cc1scc2c1N(C(=O)CN1CCN(C)CC1)c1ccccc1NC2=O [telenzepine]
[2]
  inhibition of the binding of labeled ligands to M1 receptors: specific and selective inhibition
